Test [1] has as its system TNF-α in peripheral blood mononuclear cells (PBMCs). In words: TNF-α inhibition in LPS-stimulated peripheral blood mononuclear cells. In kind it is cell-based. The settings on record: PBMC; PBMCs, LPS 1 μg/mL for 24 h; read-out: Proinflammatory TNF-α IC50. The protocol:
Peripheral blood mononuclear cells (PBMCs) pooled from 10-20 donors were obtained from a local blood bank, ficoll gradient purified, and stored frozen in liquid nitrogen. Cells were thawed and seeded into 96-well plates at 5×10^5 cells/well in RPMI 1640 with 10% heat-inactivated fetal calf serum (MediaTech, Inc, Hearndon, Va., USA), Test articles were evaluated at the indicated concentrations in 150 μL media containing <2% DMSO, final, with stimulant and PBMCs. Cells were stimulated with lipopolysaccharide (LPS, phenol-extract from E. coli, Sigma-Aldrich, St. Louis, Mo.) at 1 μg/mL. Stimulation was with LPS for 24 h to measure TNF-α. Cytokines in supernatants were analyzed with a FACSArray flow cytometer (BD Biosciences, San Jose, Calif., USA) using the BD Cytometric Bead Array (CBA) Flex Set (BD Biosciences). IC50 values were calculated using the four parameter logistic equation.

The test system of test [2] is Schistosoma mansoni schistosomula. Kind of test: Schistosoma mansoni schistosomula phenotypic screen. As to conditions: First Set. An excerpt: Puerto Rican isolates of S. mansoni using Biomphalaria glabrata snails and golden hamsters as intermediate and definitive hosts, respectively, were maintained and handled in the University of California-San Francisco Sandler Center for Tropical Medicine. Patent B. glabrata snails (6-8 weeks after exposure to 5-10 infectious miracidia) were induced to shed infective larvae (cercariae) under light stimulus into the surrounding water. Cercariae were washed in rounds of ice-cold water and concentrated through and over sieves of varying pore sizes. They were then mechanically sheared (separation of heads from tails) as described in Colley D G, et al. Exp Parasitol 1974, 35:44-51, in ice-cold Incomplete Medium 169 (as described in Basch P F. J Parasitol 1981, 67:179-185, minus FBS and antibiotics) by passing 15 times through a double headed 22-gauge syringe needle connected to two 10 mL syringes. The resulting cercarial heads (schistosomula) were separated from their tails by swirling in a petri dish. Concentrated schistosomula were added to a sterile 1.5 mL centrifuge tube and allowed to settle over ice. Schistosomula were transferred to a sterile environment and washed 4 times in Incomplete Medium 169 prior to plating.
Two sets of screening were performed. In the first set, compounds were screened against schistosomula and observations were made at 24 hours, 2 days, 3 days, 4 days, and 6 days. In the second set, compounds were screened against schistosomula with observations at 24 hours, 2 days, 3 days, and 4 days and adult worms at 7 hours, 24 hours, 4 days, and 6 days.
Plates contain 200 schistosomula/well in […] complete Basch medium and were maintained at 37° C. in a 5% CO2 atmosphere. All compounds were tested in duplicate with at least two experimental replicates. Compounds and control compounds were added to the plates using the Biomek FXp using 96-well disposable tips. Final concentration of DMSO in each well was 0.5%.
A semi-quantitative and controlled nomenclature for phenotypes that can arise as a result of compound insult to both schistosomula and adults was utilized (Abdulla M H, et al., PLoS Negl Trop Dis 2009, 3:e478). Phenotypes were recorded by visual inspection and on a flexible time basis but at least at 24 h and 4 day time-points in the case of large scale screening. […] To help eliminate bias, two screen analysts scored phenotypes ‘blind’ both to knowledge of the contents of each screening plate and the phenotypes scored by his/her colleague. Upon completing their individual assessments, each analyst's ‘hit sheet’ was then compared to derive a ‘consensus hit sheet’. Discrepancies in analysts' hit sheets were re-evaluated under the microscope to eventually make a consensus hit call.
Hyper-coiled and coiled represent a verbal description of the visual phenotype as compared to the DMSO control. The + and ++ and +++ means more of the phenotype which preceded it. The − means less of the phenotype which preceded it. Results

A further test deals with TNF-α. Kind of test: In vivo TNF-α release in LPS treated mice. Details: species or system Swiss Webster mice. The protocol: In vivo TNF-α release was measured in Swiss Webster mice, 10/group. Animals were dosed via oral gavage with drug 1% CMC suspension. Thirty minutes later LPS, 1.5 mg/kg was administered by intraperitoneal injection. Ninety minutes later animals were sacrificed, blood was collected by exsangination and serum prepared for analysis. TNF-α concentration was assessed by ELISA, non-drug treated animals had TNF-α levels 1000-3000 pg/mL. 6-(1-Hydroxy-1,3-dihydrobenzo[c][1,2]oxaborol-5-yloxy)-2-(2-isopropoxyethoxy)nicotinonitrile (D140) and 6-(1-hydroxy-1,3-dihydrobenzo[c][1,2]oxaborol-5-yloxy)-2-(4-oxopentyloxy)nicotinonitrile (D141) are disclosed in U.S. patent application Ser. No. 12/399,015, filed Mar. 5, 2009.

The record followed here is US8716478B2, “Boron-containing small molecules” (Anacor Pharmaceuticals, Inc., priority 2010, dated 2014).

By IC50 is commonly meant the concentration that inhibits the measured activity by half. As for `N#Cc1cc(Cl)c(Oc2ccc3c(c2)COB3O)nc1OCCCC1(O)CC1` [Compound D233, 5-Chloro-6-(1-hydroxy-1,3-dihydrobenzo[c][1,2]oxaborol-5-yloxy)-2-(3-(1-hydroxycyclopropyl)propoxy)nicotinonitrile], the IC50 in test [1] stood at 13 nM.
`N#Cc1ccc(Oc2ccc3c(c2)COB3O)c(OCC2CC2)c1` [3-(Cyclopropylmethoxy)-4-(1-hydroxy-1,3-dihydrobenzo[c][1,2]oxaborol-5-yloxy)benzonitrile]: in test [2], the “schistosomula phenotype, 24 h” value was “O+” and the “schistosomula phenotype, day 6” value is “partial D”.
On to `CCC(=O)CCCOc1nc(Oc2ccc3c(c2)COB3O)c(Cl)cc1C#N` [Compound D234, 5-chloro-6-(1-hydroxy-1,3-dihydrobenzo[c][1,2]oxaborol-5-yloxy)-2-(4-oxohexyloxy)nicotinonitrile], for which, in test [1], the IC50 was 2.1 nM.
Turning to `CC(=O)NCc1ccc(Oc2ccc3c(c2)COB3O)cc1` [N-[4-(1-Hydroxy-1,3-dihydro-benzo[c][1,2]oxaborol-5-yloxy)-benzyl]-acetamide], in test [2] (day 4), the “schistosomula phenotype, day 4” value is reported as “D (dead)”.
Take `C[C@]12C=CC(=O)C=C1CC[C@@H]1[C@@H]2[C@@H](O)C[C@@]2(C)[C@H]1CC[C@]2(O)C(=O)CO` [Prednisolone]: the “% Inhibition of TNFa Blood Levels in LPS Treated Mice” value (“% Inhibition of TNFa Blood Levels” below) with TNF-α (Oral Dose 0.01 mg/kg) is 16%; in the test with TNF-α (Oral Dose 0.1 mg/kg), 54.3%; with TNF-α (Oral Dose 3 mg/kg), 81.6%; in the test on TNF-α (Oral Dose 10 mg/kg), 84.5%; with TNF-α (Oral Dose 100 mg/kg), 85.9%.
For the compound `CCCOC(=O)c1ccc(Oc2ccc3c(c2)COB3O)nc1` [n-Propyl 6-(1-hydroxy-1,3-dihydrobenzo[c][1,2]oxaborol-5-yloxy)nicotinate], the “schistosomula phenotype, 24 h” value in test [2] is “O+”.
Same read-out and setting: next, `CC(C)Oc1nc(Oc2ccc3c(c2)COB3O)ccc1C#N` [6-(1-Hydroxy-1,3-dihydro-benzo[c][1,2]oxaborol-5-yloxy)-2-isopropoxy-nicotinonitrile]: “O+”; `N#Cc1ccc(Oc2ccc3c(c2)COB3O)nc1N1CCCC1` [6-(1-Hydroxy-1,3-dihydro-benzo[c][1,2]oxaborol-5-yloxy)-2-pyrrolidin-1-yl-nicotinonitrile]: “O+”.
Consider `CCOC(=O)c1cnc(Oc2ccc3c(c2)COB3O)c(Cl)c1` [Ethyl 5-chloro-6-(1-hydroxy-1,3-dihydrobenzo[c][1,2]oxaborol-5-yloxy)nicotinate], for which, in test [2], the “schistosomula phenotype, 24 h” value is given as “O++”.
The same measure, in the same setting: next, `COCCNc1nc(Oc2ccc3c(c2)COB3O)ccc1C#N` [6-(1-Hydroxy-1,3-dihydro-benzo[c][1,2]oxaborol-5-yloxy)-2-(2-methoxy-ethylamino)-nicotinonitrile]: “O−”; `CCOC(=O)c1ccc(Oc2ccc3c(c2)COB3O)c(Oc2cc(C#N)ccn2)c1` [5-[4-Ethoxycarbonyl-2-(4-cyanopyridin-2-yloxy)phenoxy]-1,3-dihydro-1-hydroxy-2,1-benzoxaborole]: “O+”; `N#Cc1ccc(Oc2ccc3c(c2)COB3O)nc1OCC(F)(F)F` [6-(1-Hydroxy-1,3-dihydro-benzo[c][1,2]oxaborol-5-yloxy)-2-(2,2,2-trifluoro-ethoxy)-nicotinonitrile]: “O (overactive)”.
Same read-out and setting: next, `CCCOc1nc(Oc2ccc3c(c2)COB3O)ccc1C#N` [6-(1-Hydroxy-1,3-dihydro-benzo[c][1,2]oxaborol-5-yloxy)-2-propoxy-nicotinonitrile]: “O+”.
Same read-out and setting: as for `CCOC(=O)c1ccc(Oc2ccc3c(c2)COB3O)nc1OCC` [Ethyl 2-ethoxy-6-(1-hydroxy-1,3-dihydrobenzo[c][1,2]oxaborol-5-yloxy)nicotinate], the entry is “O+”; as for `COCCNc1ccc(C#N)c(Oc2ccc3c(c2)COB3O)n1` [2-(1-Hydroxy-1,3-dihydro-benzo[c][1,2]oxaborol-5-yloxy)-6-(2-methoxy-ethylamino)-nicotinonitrile], “O+”.
For the compound `CN(CCO)c1nc(Oc2ccc3c(c2)COB3O)ccc1C#N` [6-(1-Hydroxy-1,3-dihydro-benzo[c][1,2]oxaborol-5-yloxy)-2-[(2-hydroxy-ethyl)-methyl-amino]-nicotinonitrile], in test [2], the “schistosomula phenotype, 24 h” value is given as “O−” and the “schistosomula phenotype, day 6” value is reported as “R O”. Further, in test [2] (day 3), the “schistosomula phenotype, day 3” value is given as “O−”.
For the compound `N#Cc1ccc(Oc2ccc3c(c2)COB3O)nc1NCCO` [6-(1-hydroxy-1,3-dihydro-benzo[c][1,2]oxaborol-5-yloxy)-2-(2-hydroxy-ethylamino)-nicotinonitrile], in test [2], the “schistosomula phenotype, 24 h” value is “O−” and the “schistosomula phenotype, day 6” value is “O+ R”.
Turning to `O=C(Nc1c(Cl)cncc1Cl)c1ccc(OC(F)F)c(OCC2CC2)c1` [Roflumilast], the “% Inhibition of TNFa Blood Levels” value came to 0% in the test with TNF-α (Oral Dose 0.3 mg/kg); 24.9% in the test with TNF-α (Oral Dose 1 mg/kg); 52.5% in the test on TNF-α (Oral Dose 3 mg/kg); 71.5% in the test on TNF-α (Oral Dose 10 mg/kg); 73.5% in the test with TNF-α (Oral Dose 30 mg/kg).
Turning to `COCCN(C)c1nc(Oc2ccc3c(c2)COB3O)ccc1C#N` [6-(1-hydroxy-1,3-dihydro-benzo[c][1,2]oxaborol-5-yloxy)-2-[(2-methoxy-ethyl)-methyl-amino]-nicotinonitrile], the “schistosomula phenotype, 24 h” value in test [2] is “O+”.
The same measure, in the same setting: as for `N#Cc1ccc(Oc2ccc3c(c2)COB3O)nc1OCC(F)F` [2-(2,2-Difluoro-ethoxy)-6-(1-hydroxy-1,3-dihydro-benzo[c][1,2]oxaborol-5-yloxy)-nicotinonitrile], the entry is “O+”; as for `CCOc1nc(Oc2ccc3c(c2)COB3O)ccc1C#N` [2-Ethoxy-6-(1-hydroxy-1,3-dihydro-benzo[c][1,2]oxaborol-5-yloxy)-nicotinonitrile], “O++”.
Consider `CC(C)OC(=O)c1ccc(Oc2ccc3c(c2)COB3O)c(F)c1` [5-(2-Fluoro-4-isopropyloxycarbonylphenoxy)-1-hydroxy-2,1-benzoxaborole], for which the “schistosomula phenotype, day 6” value in test [2] is listed as “O−, R”.
In the case of `CC(=O)OCCOc1nc(Oc2ccc3c(c2)COB3O)ccc1C#N` [6-(1-Hydroxy-1,3-dihydro-benzo[c][1,2]oxaborol-5-yloxy)-2-(acetyloxyethoxy)-nicotinonitrile], the “schistosomula phenotype, 24 h” value in test [2] is “O++”.
For the compound `CC(C)(C)Nc1nc(Oc2ccc3c(c2)COB3O)ccc1C#N` [2-tert-butylamino-6-(1-hydroxy-1,3-dihydro-benzo[c][1,2]oxaborol-5-yloxy)-nicotinonitrile], in test [2], the “schistosomula phenotype, 24 h” value was “O (overactive)”.
The same measure, in the same setting: next, `CC(C)OC(=O)c1ccc(Oc2ccc3c(c2)COB3O)nc1` [Isopropyl 6-(1-hydroxy-1,3-dihydrobenzo[c][1,2]oxaborol-5-yloxy)nicotinate]: “O+”.
For `COc1ccc(C2CNC(=O)C2)cc1OC1CCCC1` (stereo not drawn) [Rolipram], the “% Inhibition of TNFa Blood Levels” value with TNF-α (Oral Dose 10 mg/kg) came out at 8.6%; with TNF-α (Oral Dose 30 mg/kg) it was 62.7%.
